For this series, the system named is CCRIS mutagenicity, Ames/micronucleus/aberration tests. Briefly: CCRIS mutagenicity studies.
[1] abbreviates: Test System: AMES SALMONELLA TYPHIMURIUM, Strain/Indicator: TA98, Metabolic Activation: NONE, Method: STANDARD PLATE.
The mark [2] stands for this setting: Test System: AMES SALMONELLA TYPHIMURIUM, Strain/Indicator: TA100, Metabolic Activation: NONE, Method: STANDARD PLATE.
The mark [3] stands for this setting: Test System: AMES SALMONELLA TYPHIMURIUM, Strain/Indicator: TA100, Metabolic Activation: RAT, LIVER, S-9, AROCLOR 1254, Method: STANDARD PLATE.
Setting [4] is: Test System: AMES SALMONELLA TYPHIMURIUM, Strain/Indicator: TA98, Metabolic Activation: NONE, Method: PREINCUBATION
[5] abbreviates: Test System: AMES SALMONELLA TYPHIMURIUM, Strain/Indicator: TA100, Metabolic Activation: NONE, Method: PREINCUBATION
The mark [6] stands for this setting: Test System: AMES SALMONELLA TYPHIMURIUM, Strain/Indicator: TA102, Metabolic Activation: NONE, Method: PREINCUBATION
[7] abbreviates: Test System: AMES SALMONELLA TYPHIMURIUM, Strain/Indicator: TA98, Metabolic Activation: RAT, LIVER, S-9, AROCLOR 1254, Method: PREINCUBATION
Setting [8] is: Test System: AMES SALMONELLA TYPHIMURIUM, Strain/Indicator: TA100, Metabolic Activation: RAT, LIVER, S-9, AROCLOR 1254, Method: PREINCUBATION

The source made the active and inactive calls. No rule for the calls is given here.

As to `O=C(O)c1ccc(ON2P(Oc3ccc(C(=O)O)cc3)N=P(Oc3ccc(C(=O)O)cc3)(Oc3ccc(C(=O)O)cc3)N(Oc3ccc(C(=O)O)cc3)P2Oc2ccc(C(=O)O)cc2)cc1` (stereo not drawn), the mutagenic call under setting [1] was “inactive; negative”; the mutagenic call (Test System: AMES SALMONELLA TYPHIMURIUM, Strain/Indicator: TA98, Metabolic Activation: RAT, LIVER, S-9, AROCLOR 1254, Method: STANDARD PLATE) was “inactive; negative”; the mutagenic call under setting [2] is “inactive; negative”; the mutagenic call under setting [3] is “inactive; negative”.
For `Cc1ccc(NCCCl)cc1`, the mutagenic call runs as follows: under setting [1], “active; positive”; under setting [2], “active; positive”; (Test System: AMES SALMONELLA TYPHIMURIUM, Strain/Indicator: TA1977, Metabolic Activation: NONE, Method: STANDARD PLATE) “active; positive”; (Test System: AMES SALMONELLA TYPHIMURIUM, Strain/Indicator: TA1978, Metabolic Activation: NONE, Method: STANDARD PLATE) “inactive; negative”.
As to `COC(=O)c1ccc(/C=N/n2nnc3c([nH]c4ccccc43)c2=O)cc1`, the mutagenic call reads like this: (Test System: AMES SALMONELLA TYPHIMURIUM, Strain/Indicator: TA97, Metabolic Activation: NONE, Method: PREINCUBATION) “active; positive”; (Test System: AMES SALMONELLA TYPHIMURIUM, Strain/Indicator: TA97, Metabolic Activation: RAT, LIVER, S-9, AROCLOR 1254 (10%), Method: PREINCUBATION) “active; positive”; under setting [4], “active; positive”; (Test System: AMES SALMONELLA TYPHIMURIUM, Strain/Indicator: TA98, Metabolic Activation: RAT, LIVER, S-9, AROCLOR 1254 (10%), Method: PREINCUBATION) “active; positive”; under setting [5], “inactive; negative”; (Test System: AMES SALMONELLA TYPHIMURIUM, Strain/Indicator: TA100, Metabolic Activation: RAT, LIVER, S-9, AROCLOR 1254 (10%), Method: PREINCUBATION) “active; positive”. The mutagenic call is, setting by setting: under setting [6], “inactive; negative”; (Test System: AMES SALMONELLA TYPHIMURIUM, Strain/Indicator: TA102, Metabolic Activation: RAT, LIVER, S-9, AROCLOR 1254 (10%), Method: PREINCUBATION) “active; positive”.
Consider `CCC(=O)C(C)=O`, for which the mutagenic call was “inactive; negative” under setting [4]; “inactive; negative” under setting [7]; “inactive; negative” under setting [5]; “inactive; negative” under setting [8]; “inactive; negative” under setting [6]; “inactive; negative” (Test System: AMES SALMONELLA TYPHIMURIUM, Strain/Indicator: TA102, Metabolic Activation: RAT, LIVER, S-9, AROCLOR 1254, Method: PREINCUBATION).
For the compound `CC(N)=S`, the mutagenic call reads like this: (Test System: AMES SALMONELLA TYPHIMURIUM, Strain/Indicator: TA102, Metabolic Activation: RAT LIVER S-9, PHENOBARBITAL AND 5,6-BENZOFLAVONE, Method: STANDARD PLATE) “inactive; negative”; (Test System: AMES SALMONELLA TYPHIMURIUM, Strain/Indicator: TA2638, Metabolic Activation: RAT LIVER S-9, PHENOBARBITAL AND 5,6-BENZOFLAVONE, Method: STANDARD PLATE) “inactive; negative”; (Test System: E. COLI, Strain/Indicator: WP2 (PKM101), Metabolic Activation: RAT LIVER S-9, PHENOBARBITAL AND 5,6-BENZOFLAVONE, Method: STANDARD PLATE) “inactive; negative”; (Test System: E. COLI, Strain/Indicator: WP2 UVRA (PKM101), Metabolic Activation: RAT LIVER S-9, PHENOBARBITAL AND 5,6-BENZOFLAVONE, Method: STANDARD PLATE) “inactive; negative”; (Test System: E. COLI, Strain/Indicator: WP2 UVRA, Metabolic Activation: HAMSTER, LIVER, S-9, AROCLOR 1254, Method: STANDARD PLATE) “inactive; negative”; (Test System: E. COLI, Strain/Indicator: WP2 UVRA, Metabolic Activation: HAMSTER, LIVER, S-9, Method: STANDARD PLATE) “inactive; negative”. For the same compound, the mutagenic call reads like this: (Test System: E. COLI, Strain/Indicator: WP2 UVRA, Metabolic Activation: MOUSE, LIVER, S-9, AROCLOR 1254, Method: STANDARD PLATE) “inactive; negative”; (Test System: E. COLI, Strain/Indicator: WP2 UVRA, Metabolic Activation: MOUSE, LIVER, S-9, Method: STANDARD PLATE) “inactive; negative”; (Test System: E. COLI, Strain/Indicator: WP2 UVRA, Metabolic Activation: NONE, Method: STANDARD PLATE) “inactive; negative”; (Test System: E. COLI, Strain/Indicator: WP2 UVRA, Metabolic Activation: RAT, LIVER, S-9, AROCLOR 1254, Method: STANDARD PLATE) “inactive; negative”; (Test System: E. COLI, Strain/Indicator: WP2 UVRA, Metabolic Activation: RAT, LIVER, S-9, Method: STANDARD PLATE) “inactive; negative”; (Test System: MOUSE LYMPHOMA, Strain/Indicator: L5178Y (TK+/TK-), Metabolic Activation: NONE, Method: SUSPENSION/PLATE) “active; positive”. In addition, the mutagenic call reads like this: (Test System: MOUSE LYMPHOMA, Strain/Indicator: L5178Y (TK+/TK-), Metabolic Activation: RAT, LIVER, S-9, AROCLOR 1254, Method: SUSPENSION/PLATE) “active; positive”; (Test System: MOUSE LYMPHOMA, Strain/Indicator: L5178Y (TK+/TK-), Metabolic Activation: RAT, LIVER, S-9, Method: SUSPENSION/PLATE) “inactive; negative”.
In the case of `OCc1ccc2c(CO)c3ccc4ccccc4c3nc2c1`, the mutagenic call under setting [3] was “inactive; negative”.
As to `CCN(CC)S(=O)(=O)c1ccc(NC(C)=O)cc1`, the mutagenic call reads like this: under setting [4], “inactive; negative”; under setting [7], “inactive; negative”; under setting [5], “inactive; negative”; under setting [8], “inactive; negative”.
In the case of `c1cncc(-c2cccnc2)c1`, the mutagenic call (Test System: AMES SALMONELLA TYPHIMURIUM, Strain/Indicator: TA97, Metabolic Activation: RAT, LIVER, S-9, PHENOBARBITAL, Method: STANDARD PLATE) is “inactive; negative”; the mutagenic call (Test System: AMES SALMONELLA TYPHIMURIUM, Strain/Indicator: TA98, Metabolic Activation: RAT, LIVER, S-9, PHENOBARBITAL, Method: STANDARD PLATE) was “inactive; negative”; the mutagenic call (Test System: AMES SALMONELLA TYPHIMURIUM, Strain/Indicator: TA100, Metabolic Activation: RAT, LIVER, S-9, PHENOBARBITAL, Method: STANDARD PLATE) is “active; positive”; the mutagenic call (Test System: AMES SALMONELLA TYPHIMURIUM, Strain/Indicator: TA1535, Metabolic Activation: RAT, LIVER, S-9, PHENOBARBITAL, Method: STANDARD PLATE) is “inactive; negative”; the mutagenic call (Test System: AMES SALMONELLA TYPHIMURIUM, Strain/Indicator: TA1537, Metabolic Activation: RAT, LIVER, S-9, PHENOBARBITAL, Method: STANDARD PLATE) was “inactive; negative”; the mutagenic call (Test System: AMES SALMONELLA TYPHIMURIUM, Strain/Indicator: TA1538, Metabolic Activation: RAT, LIVER, S-9, PHENOBARBITAL, Method: STANDARD PLATE) was “active; positive”.
As for `Cc1ccc2ccc([N+](=O)[O-])cc2c1`, under setting [4], the mutagenic call is “active; positive”.

The values are drawn from PubChem BioAssay AID1259407 (Chemical Carcinogenesis Research Information System (CCRIS), 2018).
